Activity calls are given as the source filed them. The rule behind the calls is not given here.
Experiments:
HCT-116 [1] = experiment: Cytotoxicity against human HCT116 cells assessed as cell survival at 50 uM after 48 hrs by Hoechst 33342 staining based assay relative to control; assay type: functional; details: HCT-116, 48 h, read-out: Survival
PC-3 [2] = experiment: Cytotoxicity against human PC3 cells assessed as cell survival at 50 uM after 48 hrs by Hoechst 33342 staining based assay relative to control; assay type: functional; details: PC-3, 48 h, read-out: Survival
HaCaT [3] = experiment: Cytotoxicity against human HaCaT cells assessed as cell survival at 50 uM after 48 hrs by Hoechst 33342 staining based assay relative to control; assay type: functional; details: read-out: Survival
[4] = Cytotoxicity against human fibroblasts assessed as cell survival at 50 uM after 48 hrs by Hoechst 33342 staining based assay relative to control; parameters: species or system Fibroblast; details: read-out: Survival
Fibroblast = experiment: Cytotoxicity against human fibroblasts assessed as cell viability after 48 hrs by Hoechst 33342 staining based assay
RL = experiment: Cytotoxicity against human RL assessed as cell viability after 48 hrs by Hoechst 33342 staining based assay; assay type: functional
MCF7 [5] = experiment: Cytotoxicity against human MCF7 assessed as cell viability after 48 hrs by Hoechst 33342 staining based assay; assay type: functional; details: MCF7, 48 h
[6] = Selectivity index, ratio of IC50 for human fibroblasts to IC50 for human MDA-MB-231 cells
[7] = Selectivity index, ratio of IC50 for human fibroblasts to IC50 for human HCT116 cells
[8] = Selectivity index, ratio of IC50 for human fibroblasts to IC50 for human PC3 cells
[9] = Selectivity index, ratio of IC50 for human fibroblasts to IC50 for human HaCaT cells
[10] = Selectivity index, ratio of IC50 for human fibroblasts to IC50 for human RL cells
HCT-116 [11] = experiment: Induction of apoptosis in human HCT116 cells harboring wild-type p53 assessed as increase in late apoptosis at 2 times IC50 after 48 hrs by YoPro/propidium iodide/Hoechst staining based assay; assay type: functional, cell-based
PC-3 [12] = experiment: Induction of apoptosis in human PC3 cells harboring p53 mutant assessed as increase in late apoptosis at 2 times IC50 after 48 hrs by YoPro/propidium iodide/Hoechst staining based assay; assay type: functional, cell-based
MCF7 [13] = experiment: Induction of apoptosis in human MCF7 cells harboring wild-type p53 assessed as increase in early apoptosis at 2 times IC50 after 24 hrs by YoPro/propidium iodide/Hoechst staining based assay; assay type: functional, cell-based
HCT-116 [14] = experiment: Induction of apoptosis in human HCT116 cells harboring wild-type p53 assessed as increase in cleaved caspase3 at 2 times IC50 after 48 hrs by Hoechst staining based assay; assay type: functional, cell-based
Caco-2 [15] = experiment: Cell cycle arrest in human Caco2 cells assessed as accumulation at S phase at 10 uM measured after 48 hrs by Hoechst/BrdU staining based fluorescence assay (reference value: […]); assay type: functional
MDA-MB-231 [16] = experiment: Cell cycle arrest in human MDA-MB-231 cells harboring p53 mutant assessed as mitotic index at 10 uM measured after 48 hrs by Hoechst staining based fluorescence assay (reference value: 2.1); assay type: functional
MDA-MB-231 [17] = experiment: Cell cycle arrest in human MDA-MB-231 cells harboring p53 mutant assessed as accumulation at S phase at 10 uM measured after 48 hrs by Hoechst/BrdU staining based fluorescence assay (reference value: 42.2%); assay type: functional
PC-3 [18] = experiment: Cell cycle arrest in human PC3 cells harboring p53 mutant assessed as mitotic index at 10 uM measured after 48 hrs by Hoechst staining based fluorescence assay (reference value: 2.5); assay type: functional
HaCaT [19] = experiment: Cell cycle arrest in human HaCaT cells harboring […] p53 assessed as mitotic index at 10 uM measured after 48 hrs by Hoechst staining based fluorescence assay (reference value: 2.6); assay type: functional
Huh-7 = experiment: Cell cycle arrest in human HuH7 cells assessed as mitotic index at 25 uM measured after 48 hrs by Hoechst staining based fluorescence assay (reference value: 2.2); assay type: functional
Caco-2 [20] = experiment: Cell cycle arrest in human Caco2 cells assessed as mitotic index at 25 uM measured after 48 hrs by Hoechst staining based fluorescence assay (reference value: 3.6); assay type: functional
MDA-MB-231 [21] = experiment: Cell cycle arrest in human MDA-MB-231 cells harboring p53 mutant assessed as mitotic index at 25 uM measured after 48 hrs by Hoechst staining based fluorescence assay (reference value: 2.1); assay type: functional
MDA-MB-231 [22] = experiment: Cell cycle arrest in human MDA-MB-231 cells harboring p53 mutant assessed as accumulation at S phase at 25 uM measured after 48 hrs by Hoechst/BrdU staining based fluorescence assay (reference value: 42.2%); assay type: functional
HCT-116 [23] = experiment: Cell cycle arrest in human HCT116 cells harboring wild-type p53 assessed as mitotic index at 25 uM measured after 48 hrs by Hoechst staining based fluorescence assay (reference value: 2.3); assay type: functional
HCT-116 [24] = experiment: Cell cycle arrest in human HCT116 cells harboring wild-type p53 assessed as accumulation at S phase at 25 uM measured after 48 hrs by Hoechst/BrdU staining based fluorescence assay (reference value: 68.4%); assay type: functional
PC-3 [25] = experiment: Cell cycle arrest in human PC3 cells harboring p53 mutant assessed as mitotic index at 25 uM measured after 48 hrs by Hoechst staining based fluorescence assay (reference value: 2.5); assay type: functional
PC-3 [26] = experiment: Cell cycle arrest in human PC3 cells harboring p53 mutant assessed as accumulation at S phase at 25 uM measured after 48 hrs by Hoechst/BrdU staining based fluorescence assay (reference value: 40.8%); assay type: functional
HaCaT [27] = experiment: Cell cycle arrest in human HaCaT cells harboring […] p53 assessed as mitotic index at 25 uM measured after 48 hrs by Hoechst staining based fluorescence assay (reference value: 2.6); assay type: functional
HaCaT [28] = experiment: Cell cycle arrest in human HaCaT cells harboring […] p53 assessed as accumulation at S phase at 25 uM measured after 48 hrs by Hoechst/BrdU staining based fluorescence assay (reference value: 52.3%); assay type: functional
Caco-2 [29] = experiment: Cell cycle arrest in human Caco2 cells assessed as accumulation at M phase by Hoechst staining based fluorescence assay; assay type: functional
HCT-116 [30] = experiment: Cell cycle arrest in human HCT116 cells assessed as accumulation at G1/S phase by Hoechst staining based fluorescence assay; assay type: functional
NCI-H727 = experiment: Cell cycle arrest in human NCI-H727 cells assessed as accumulation at G1/S phase by Hoechst staining based fluorescence assay; assay type: functional
HCT-116 [31] = experiment: Induction of apoptosis in human HCT116 cells harboring wild-type p53 assessed as upregulation of p21 measured after 48 hrs by Hoechst staining based fluorescence assay; assay type: functional, cell-based
MCF7 [32] = experiment: Induction of apoptosis in human MCF7 cells harboring wild-type p53 assessed as upregulation of p21 measured after 48 hrs by Hoechst staining based fluorescence assay; assay type: functional, cell-based
HCT-116 [33] = experiment: Induction of apoptosis in human HCT116 cells harboring wild-type p53 assessed as upregulation of cyclinB1 measured after 48 hrs by Hoechst staining based assay; assay type: functional, cell-based
MDA-MB-231 [34] = experiment: Induction of apoptosis in human MDA-MB-231 cells harboring p53 mutant assessed as upregulation of cyclinB1 after 18 hrs by Hoechst staining based assay; assay type: functional, cell-based
PC-3 [35] = experiment: Cell cycle arrest in human PC3 cells assessed as accumulation at M phase by Hoechst staining based fluorescence assay; assay type: functional

Row | SMILES | viability at 50 µM (HCT-116 [1]) | viability at 50 µM (PC-3 [2]) | viability at 50 µM (HaCaT [3]) | viability at 48 h, 50 µM [4] | IC50 (Fibroblast) | IC50 (RL) | IC50 (MCF7 [5]) | Ratio IC50 [7] | Ratio IC50 [8] | Ratio IC50 [10] | Activity (HCT-116 [11]) | Activity (PC-3 [12]) | Activity (MCF7 [13]) | Activity (HCT-116 [14]) | Activity (Caco-2 [15]) | Activity (MDA-MB-231 [17]) | Activity_index (PC-3 [18]) | Activity_index (Caco-2 [20]) | Activity (MDA-MB-231 [22]) | Activity_index (HCT-116 [23]) | other results
1 | COc1cc(O)c(C(=O)/C=C/c2ccccc2)c(OC)c1 [FLAVOKAWAIN B] | 0% | 27% | 7% | 32% | > 20 µM | 8.2 µM | 15.5 µM | 3.5 | 2.9 | 3.2 | Active | Active | Active | Active | 42% | 54% | 4.2 | 19.3 | 40% | 0.6 | Ratio IC50 [6]: 1.6; Ratio IC50 [9]: 1.9; Activity_index (MDA-MB-231 [16]): 5.2; Activity_index (HaCaT [19]): 3.4; Activity_index (Huh-7): 1.7; Activity_index (MDA-MB-231 [21]): 6.8; Activity (HCT-116 [24]): 28%; Activity_index (PC-3 [25]): 2; Activity (PC-3 [26]): 20%; Activity_index (HaCaT [27]): 0.9; Activity (HaCaT [28]): 21%; Activity (Caco-2 [29]): Active; Activity (HCT-116 [30]): Active; Activity (NCI-H727): Active; Activity (HCT-116 [31]): Active; Activity (MCF7 [32]): Active; Activity (HCT-116 [33]): Active; Activity (MDA-MB-231 [34]): Active
2 | COc1cc(O)c(C(=O)/C=C/c2ccccc2SC)c(OC)c1 | 1% | 35% | 22% | 65% | > 20 µM | 8.9 µM | 15.9 µM | 3.6 | 4.1 | 4.1 | Active | Active | Active | Active | 50% | inactive | 4.4 | 21.9 | inactive | 1.3 | Ratio IC50 [9]: 3.4; Activity (MDA-MB-231 [16]): inactive; Activity_index (HaCaT [19]): 3.1; Activity_index (Huh-7): 5.3; Activity (MDA-MB-231 [21]): inactive; Activity (HCT-116 [24]): 28%; Activity_index (PC-3 [25]): 7.6; Activity (PC-3 [26]): 31%; Activity_index (HaCaT [27]): 7.8; Activity (HaCaT [28]): 30%; Activity (Caco-2 [29]): Active; Activity (HCT-116 [30]): Active; Activity (PC-3 [35]): Active; Activity (NCI-H727): Active; Activity (HCT-116 [31]): Active; Activity (MCF7 [32]): Active; Activity (HCT-116 [33]): Active
3 | COc1cc(O)c(C(=O)/C=C/c2ccc(F)cc2)c(OC)c1 | 25% | 56% | 36% | > 80% | > 20 µM | 5.4 µM | 8.8 µM | >4 | >3.8 | >5.4 | Active | Active | Active | Active | 49% | inactive | 2.9 | 24.8 | inactive | 0.7 | Activity (MDA-MB-231 [16]): inactive; Activity (HaCaT [19]): inactive; Activity (Huh-7): inactive; Activity (MDA-MB-231 [21]): inactive; Activity (HCT-116 [24]): 28%; Activity_index (PC-3 [25]): 5.3; Activity (PC-3 [26]): 34%; Activity (HaCaT [27]): inactive; Activity (HaCaT [28]): inactive; Activity (Caco-2 [29]): Active; Activity (HCT-116 [30]): Active; Activity (PC-3 [35]): Active; Activity (HCT-116 [31]): Active; Activity (MCF7 [32]): Active; Activity (HCT-116 [33]): Active
4 | COc1cccc(/C=C/C(=O)c2c(O)cc(OC)cc2OC)c1 | 0% | 22% | 7% | 44% | > 20 µM | 9 µM | 10.3 µM | 3.5 | 3.7 | 3 | Active | Active | Active | Active | 31% | 54% | 4.4 | 6.1 | 38% | 0.3 | Ratio IC50 [6]: 2; Ratio IC50 [9]: 2.6; Activity_index (MDA-MB-231 [16]): 4.2; Activity_index (HaCaT [19]): 2.6; Activity_index (Huh-7): 0.1; Activity_index (MDA-MB-231 [21]): 3.6; Activity (HCT-116 [24]): 37%; Activity_index (PC-3 [25]): 0.4; Activity (PC-3 [26]): 9.4%; Activity_index (HaCaT [27]): 0.1; Activity (HaCaT [28]): 8%; Activity (Caco-2 [29]): Active; Activity (HCT-116 [30]): Active; Activity (PC-3 [35]): Active; Activity (NCI-H727): Active; Activity (HCT-116 [31]): Active; Activity (MCF7 [32]): Active; Activity (HCT-116 [33]): Active; Activity (MDA-MB-231 [34]): Active
5 | COc1cc(O)c(C(=O)/C=C/c2ccccc2OC)c(OC)c1 | 8% | 32% | 30% | 71% | > 20 µM | 10.1 µM | 10.5 µM | 4 | 3.8 | 3.6 | Active | Active | Active | Active | 46% | inactive | 2.9 | 21.5 | inactive | 1.8 | Ratio IC50 [9]: 3.3; Activity (MDA-MB-231 [16]): inactive; Activity_index (HaCaT [19]): 3.1; Activity (Huh-7): inactive; Activity (MDA-MB-231 [21]): inactive; Activity (HCT-116 [24]): 27%; Activity_index (PC-3 [25]): 7.2; Activity (PC-3 [26]): 24%; Activity_index (HaCaT [27]): 8.4; Activity (HaCaT [28]): 29%; Activity (Caco-2 [29]): Active; Activity (HCT-116 [30]): Active; Activity (PC-3 [35]): Active; Activity (NCI-H727): Active; Activity (HCT-116 [31]): Active; Activity (MCF7 [32]): Active; Activity (HCT-116 [33]): Active
